Reference: ChEMBL document CHEMBL1201862, “PubChem BioAssay data set” (2004)
Calls of active or inactive are those of the source.

Key:
[1] = target: T1, E3 ubiquitin-protein ligase XIAP (Homo sapiens, UniProt P98170); experiment: Counter Screen using XIAP-Bir3 for Chemical Antagonists of Bir1/2 domains of IAP-family anti-apoptotic proteins. [Related pubchem assays (depositor defined):AID1018, AID1449, AID1514, AID1638, AID1749, AID1750, AID488957, AID488963]
[2] = target: T1, E3 ubiquitin-protein ligase XIAP; experiment: small molecules displacing peptide from XIAP – biochemical, IAP family, fluorescence polarization (AID 1018); assay type: functional
A-375 = experiment: MITF: Counter assay: A375 proliferation Measured in Cell-Based System Using Plate Reader - 2084-03_Inhibitor_Dose_DryPowder_Activity. [Related pubchem assays (depositor defined):AID488944]; assay type: functional; details: Homo sapiens
[3] = reduction of Shn3 3'UTR-driven luciferase in osteoblasts – cell-based, Clone20 osteoblasts, firefly luciferase, cherry-picked, dose response (AID 624132); assay type: functional;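 further: firefly luciferase luminescence from reporter carrying the Shn3 3'UTR in osteoblasts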
[4] = Luminescence Cell-Based Dose Confirmation HTS to Identify Activators of 5'UTR Stem-Loop Driven Alpha-Synuclein mRNA Translation in H4 Neuroglioblastoma Cells. [Related pubchem assays: 1829 (Project Summary), 1814 (Primary HTS)]; assay type: functional
[5] = Luminescence Cell-Based Dose Response HTS to Identify Activators of Luciferase Translation or Activity in H4 […] Cells. [Related pubchem assays: 1829 (Project Summary), 1814 (Primary HTS)]; assay type: functional
[6] = target: DNA damage-inducible transcript 3 protein (Mus musculus, UniProt P35639); assay type: functional, Cricetulus griseus
[7] = non-specific 3'UTR reporter inhibition in Clone20-Shn3RL – cell-based, Renilla luciferase, cherry-picked, counter-screen for Shn3 inhibitor project, dose response (AID 624133); assay type: functional
[8] = loss of viability in HepG2 cells – cell-based, CellTiter-Glo, cherry-picked, cytotoxicity control for Shn3 inhibitor project, dose response (AID 624134); assay type: functional
[9] = target: T2, Microphthalmia-associated transcription factor (Homo sapiens, UniProt O75030); experiment: reducers of TRPM1 reporter luminescence, concentration series – cell-based, SK-MEL-5, cherry-picked, set 3, MITF inhibitor project, dose response (AID 493073); assay type: functional;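 further: SK-MEL-5 melanoma cells with luciferase driven by the MITF target TRPM1 promoter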
T2 sequence (O75030 whole entry): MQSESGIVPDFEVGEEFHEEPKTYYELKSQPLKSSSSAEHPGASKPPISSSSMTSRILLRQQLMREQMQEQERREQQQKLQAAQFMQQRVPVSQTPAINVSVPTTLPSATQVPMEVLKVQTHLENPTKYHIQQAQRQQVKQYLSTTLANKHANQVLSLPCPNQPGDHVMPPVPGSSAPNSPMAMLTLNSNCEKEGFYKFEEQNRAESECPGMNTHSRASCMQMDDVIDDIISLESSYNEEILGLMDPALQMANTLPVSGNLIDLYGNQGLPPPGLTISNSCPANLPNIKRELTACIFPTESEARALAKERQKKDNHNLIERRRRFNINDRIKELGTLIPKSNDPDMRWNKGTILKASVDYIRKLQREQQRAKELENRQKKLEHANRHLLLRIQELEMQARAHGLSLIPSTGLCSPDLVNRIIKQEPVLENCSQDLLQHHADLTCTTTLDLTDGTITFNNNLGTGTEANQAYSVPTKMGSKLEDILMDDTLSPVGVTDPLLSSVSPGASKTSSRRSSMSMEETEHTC

[10] = NIH3T3 cell viability loss – ATP luminescence, mouse fibroblasts, counter-screen, dose response (AID 2010); assay type: functional, cell-based;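 further: cells exposed to compound for about 90 hours before reading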
[11] = Trypanosoma cruzi growth suppression in host cells – NIH3T3 host cells, beta-gal luminescence, confirmation (AID 2044); assay type: functional, cell-based;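 further: intracellular parasites grown in NIH/3T3 mouse fibroblasts as host cells; luminescent beta-galactosidase reporter signal from transgenic T. cruzi replicating inside host cells; inhibitors lower the luminescence signal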
H4 = experiment: Luminescence Cell-Based Dose Response HTS to Identify Activators of 5'UTR Stem-Loop Driven Prion Protein mRNA Translation in H4 Neuroglioblastoma Cells. [Related pubchem assays: 1829 (Project Summary), 1814 (Primary HTS)]; assay type: functional; details: Homo sapiens
[12] = target: Voltage-gated inwardly rectifying potassium channel KCNH2 (Homo sapiens, UniProt Q12809); experiment: concentration-dependent hERG rescue from blockers – cell-based, thallium flux, dose response (AID 2121); assay type: ADME
[13] = toxicity toward cultured mammalian cells – cell-based, plate reader, cherry-pick samples, cytotoxicity control, dose response (AID 504397); assay type: functional
HEK293 = experiment: EBV LMP1 TES2 canonical NF-kB signalling blockers – cell-based, HEK293, luciferase, cherry-pick, dose response (AID 588343); assay type: functional; details: Homo sapiens

T1 sequence (P98170 whole entry): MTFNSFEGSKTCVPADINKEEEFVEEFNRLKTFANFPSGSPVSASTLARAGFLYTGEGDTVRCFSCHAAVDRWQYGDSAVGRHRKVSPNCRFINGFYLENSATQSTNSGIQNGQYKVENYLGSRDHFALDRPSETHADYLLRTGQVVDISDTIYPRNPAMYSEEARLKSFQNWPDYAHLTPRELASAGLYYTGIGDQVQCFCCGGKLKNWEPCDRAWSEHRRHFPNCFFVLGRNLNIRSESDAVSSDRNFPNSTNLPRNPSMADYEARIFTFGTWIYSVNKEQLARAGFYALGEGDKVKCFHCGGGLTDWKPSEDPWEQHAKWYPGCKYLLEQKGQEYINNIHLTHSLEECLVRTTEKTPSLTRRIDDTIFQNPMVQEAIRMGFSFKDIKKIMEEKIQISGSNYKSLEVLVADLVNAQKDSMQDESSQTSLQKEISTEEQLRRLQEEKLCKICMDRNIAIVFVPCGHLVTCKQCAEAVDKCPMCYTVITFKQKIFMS
Chain of DNA damage-inducible transcript 3 protein (P35639 whole entry): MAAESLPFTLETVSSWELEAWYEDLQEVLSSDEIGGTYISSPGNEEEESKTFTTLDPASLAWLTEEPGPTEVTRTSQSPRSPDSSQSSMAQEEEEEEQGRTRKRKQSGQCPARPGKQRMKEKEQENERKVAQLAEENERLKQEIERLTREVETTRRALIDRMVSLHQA
Chain of Voltage-gated inwardly rectifying potassium channel KCNH2 (Q12809 whole entry): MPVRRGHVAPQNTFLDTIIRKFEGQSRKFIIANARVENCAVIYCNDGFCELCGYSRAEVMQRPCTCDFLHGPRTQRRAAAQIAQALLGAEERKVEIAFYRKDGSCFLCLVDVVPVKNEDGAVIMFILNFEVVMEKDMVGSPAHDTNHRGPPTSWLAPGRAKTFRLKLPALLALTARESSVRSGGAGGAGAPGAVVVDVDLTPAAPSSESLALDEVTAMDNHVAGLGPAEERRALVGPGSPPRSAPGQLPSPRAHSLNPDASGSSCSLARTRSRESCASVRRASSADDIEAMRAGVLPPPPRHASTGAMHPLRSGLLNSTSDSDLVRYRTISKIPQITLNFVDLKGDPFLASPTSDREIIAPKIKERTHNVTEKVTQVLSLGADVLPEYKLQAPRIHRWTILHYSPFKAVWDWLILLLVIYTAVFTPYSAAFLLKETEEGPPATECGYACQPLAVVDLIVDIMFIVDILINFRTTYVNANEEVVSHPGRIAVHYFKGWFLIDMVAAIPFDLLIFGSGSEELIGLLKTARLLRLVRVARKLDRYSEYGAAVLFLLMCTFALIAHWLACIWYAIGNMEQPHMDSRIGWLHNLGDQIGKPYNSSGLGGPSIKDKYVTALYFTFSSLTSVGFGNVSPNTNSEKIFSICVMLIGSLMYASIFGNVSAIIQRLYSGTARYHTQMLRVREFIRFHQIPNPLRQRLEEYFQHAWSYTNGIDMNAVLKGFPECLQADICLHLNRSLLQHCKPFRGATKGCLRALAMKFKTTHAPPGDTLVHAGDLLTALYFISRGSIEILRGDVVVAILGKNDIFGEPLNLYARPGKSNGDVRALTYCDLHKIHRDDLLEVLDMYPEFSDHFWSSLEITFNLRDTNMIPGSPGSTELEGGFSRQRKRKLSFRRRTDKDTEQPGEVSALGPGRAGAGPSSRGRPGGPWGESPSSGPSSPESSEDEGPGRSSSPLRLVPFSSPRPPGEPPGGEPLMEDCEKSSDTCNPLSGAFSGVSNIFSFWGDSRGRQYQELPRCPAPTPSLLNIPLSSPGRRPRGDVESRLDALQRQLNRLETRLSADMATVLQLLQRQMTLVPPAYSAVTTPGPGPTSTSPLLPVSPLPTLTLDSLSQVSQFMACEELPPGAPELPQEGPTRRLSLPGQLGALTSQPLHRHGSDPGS

| SMILES | IC50 [1] | IC50 [2] | AC50 (A-375) | AC50 [3] | EC50 [4] | EC50 [5] | Absolute IC50 (CHOP) [6] | AC50 [7] | AC50 [8] | AC50 [9] | EC50 [10] | EC50 [11] | EC50 (H4) | EC50 [12] | AC50 [13] | AC50 (HEK293) |
| --- | --- | --- | --- | --- | --- | --- | --- | --- | --- | --- | --- | --- | --- | --- | --- | --- |
| CN1/C(=C\C=C2\N=C(c3ccc(F)cc3)OC2=O)C(C)(C)c2ccccc21 | > 12.5 µM (inactive) | > 100 µM (not active) | – | – | – | – | – | – | – | – | – | – | – | – | – | – |
| CC(C)(C)C(=O)Cn1ncc(Br)c(Br)c1=O | – | – | 32.8 µM (active) | 9.51 µM (active) | > 120 µM (not active) | > 120 µM (not active) | 10 µM | 13.9 µM (active) | 67.2 µM (active) | 3.92 µM (active) | 1.93 µM (active) | 2.19 µM (active) | > 120 µM (not active) | – | – | – |
| Oc1c(N=NC(S)=Nc2ccccc2F)c2ccccc2n1Cc1ccccc1F | – | – | – | – | – | – | – | – | – | – | – | 1.26 µM (active) | – | 0.44 µM (active) | 302 µM (active) | 4.06 µM (active) |
